In patent US20250049831A1, “ANTIVIRAL USE OF BISE[…], AND BISEPOXYLIGNAN COMPOSITION AND PREPARATION OF BISE[…]” (priority 2021, published 2025):

How the values were obtained:
[1] = tested on: COVID-19 virus Beta variant; assay type: cell-based
[2] = tested on: COVID-19 virus Delta variant; assay type: cell-based

SMILES | COVID-19 Beta virus SI [1] | COVID-19 Delta virus SI [2]
COc1cc(O)cc(C2OCC3C(c4ccc(OC5OC(CO)C(O)C(O)C5O)c(OC)c4)OCC23)c1 (centres unmarked) [compound 1] | 7.64 | 7.14
COc1ccc([C@H]2OC[C@H]3[C@@H]2CO[C@H]3c2ccc(O[C@@H]3O[C@H](CO)[C@@H](O)[C@H](O)[C@H]3O)c(OC)c2)cc1OC [compound 2] | 7.10 | 6.86
COc1ccc(C2OCC3C(c4ccc(OC)c(OC)c4)OCC23)cc1O (centres unmarked) [compound 3] | 2.12 | 2.11
COc1ccc(C2OCC3C(c4ccc(OC(=O)C(C)c5ccc(CC(C)C)cc5)c(OC)c4)OCC23)cc1OC (centres unmarked) [compound 6] | 3.43 | 1.79
